From PMC12031237, “Toxicity Assessment of (4Z)-Lachnophyllum and (4Z,8Z)-Matricaria Lactones: Implications for Environmental Safety of Bioherbicides” (Toxins, 2025)
≈ marks a conversion by molar mass, not a printed value. Like-named read-outs stand apart in the source and are kept apart here.

Experiments:
D. magna [1] = conditions: 48 h, cited from earlier work
D. magna [2] = experiment: Literature acute toxicity of herbicides to D. magna; type: in vivo, Daphnia magna
Source text: (§1) Table 3 EC50 values from the literature for the aquatic test species exposed to multiple commonly used herbicides. | column: Hazard Ranking

R. subcapitata [3] = experiment: Literature growth inhibition of R. subcapitata by herbicides; type: cell-based, Raphidocelis subcapitata
Source text: as §1

A. fischeri [4] = conditions: 30 min, cited from earlier work
A. fischeri [5] = experiment: Literature acute toxicity of herbicides to A. fischeri; type: cell-based, Aliivibrio fischeri
Source text: as §1

R. subcapitata [6] = conditions: cited from earlier work
C. elegans = experiment: Nematode survival bioassay in soil, ASTM E2172-01; type: in vivo; conditions: 24 h exposure, positive control
Experimental: The nematode bioassay was carried out using the Caenorhabditis elegans wild-type strain N2, Bristol variant, according to the ASTM E2172—01 Standard Method (2014). Culture was maintained on NGM (nematode growth media) plates seeded with Escherichia coli (uracil-deficient OP50 strain) and stored at 20 °C. The tests were conducted using age-synchronized adult nematodes, obtained by lysing gravid nematodes with a bleaching solution (10 g/L NaOH, 10.5 g/L NaOCl), followed by centrifugation and washing with an M9 mineral medium (2.2 mM KH2PO4, 4.2 mM Na2HPO4, 85.6 mM NaCl, and 1 mM MgSO4). The synchronized nematodes were then transferred to NGM agar plates and left to recover overnight.
Soil samples (2.33 g) were hydrated to 35–45% of their dry weight using K-medium in centrifuge tubes. Ten worms were transferred to each tube and exposed to the soil samples for 24 h at 20 °C. […] Treatments were performed in triplicate, with worms kept unfed during the exposure period. Nematodes were extracted by centrifugation (2000 rpm, 2 min) using silica gel (Ludox TM 50, Sigma-Aldrich, St. Louis, MO, USA) with a specific density of 1.13 g/mL. The supernatant was then transferred to 100 mm glass Petri dishes and washed with Keller (K) medium. Extracted individuals were counted under a microscope (40× magnification), with mortality as the measured endpoint. Test validity required a minimum of 80% nematode recovery and 90% survival in the control group.

A. fischeri [7] = experiment: Bioluminescence (light) inhibition test, ISO 11348-3; conditions: 30 min exposure; standard error in brackets, n = 3
Experimental: The bioluminescence inhibition test (30 min) was detected with the A. fischeri (NRRLB-11177) supplied by MicroBioTest, Gent, Belgium, and according to ISO 11348-3 [59]. The bioluminescence was determined by the luminometer Microtox (Model 500 analyzer, New Castle, DE, USA) at 490 nm. To provide the required osmotic pressure for the bacterium, the stock solution was diluted to perform the test in saline water solution (2% sodium chloride, NaCl). The concentrations tested correspond to 0.19, 0.39, 0.78, 1.56, and 3.12 mg L^−^1 and a negative control of 0 mg L^−^1. Toxicity tests were performed in triplicate with a control, and the percentage luminescence inhibition was expressed as the ratio of the decrease in bacterial light production to the remaining light.
(§2) Data analysis was conducted using RStudio for Windows (Version 2024.09.1). Dose–response models were applied to estimate the effective concentrations (EC10 and EC50) for the tested endpoints using the “drc” package. For D. magna, the data were modeled with a binomial log-logistic approach, whereas data for R. subcapitata, A. fischeri and L. sativum were fitted to log-logistic models with the upper limit constrained to 100. Furthermore, to ensure assay sensitivity and validity, a positive control exposed to potassium dichromate for the aquatic species and copper chloride for C. elegans was tested under the same experimental conditions.

D. magna [8] = experiment: Crustacean immobility acute test, ISO 6341; type: in vivo, Daphnia magna
Experimental: The immobility acute test (48 h) with D. magna was conducted according to ISO 6341 [60]. D. magna was selected from laboratory stock cultures at the Hygiene Laboratory of the Department of Biology of the University of Naples Federico II, placed in ISO medium, and fed daily with the microalgae R. subcapitata. For the test, five neonates (third brood, <24 h old) were exposed in 10 mL of ISO medium to the following corresponding concentrations: 0.22, 0.43, 0.86, 1.73, 3.46, 6.91, 13.83, 27.65, and 55.30 mg L^−^1 and a negative control of 0 mg L^−^1. Each concentration had 4 replicates, and immobility was assessed after 24 and 48 h of exposure.
as §2

R. subcapitata [9] = experiment: Algal growth inhibition test, ISO 8692; conditions: positive control
Experimental: The algal growth inhibition test (72 h) with R. subcapitata was carried out according to ISO 8692 [58]. The algal density was determined by spectrophotometric analysis (DR5000, Hach Lange GbH, Weinheim, Germany) at 670 nm. The concentrations tested correspond to 0.19, 0.39, 0.78, 1.56, and 3.12 mg L^−^1 and a negative control of 0 mg L^−^1. The growth inhibition was calculated as the difference in growth at the end of the test of the sample and the control group. Toxicity tests were carried out in triplicate.
as §2

[10] = GHS ranking of 48 h EC50 of ref 49
[11] = GHS ranking of 72 h EC50 of ref 49
[12] = GHS ranking of 30 min EC50 of ref 49
[13] = GHS ranking of 96 h EC50 of ref 47

In the case of `CCNc1nc(Cl)nc(NC(C)C)n1` [Atrazine], the EC50 (D. magna [1]; ref 49) is listed as 0.05 mg/L (≈ 0.232 µM), the “Hazard Ranking” value (D. magna [2]; [10]) is listed as “**** (Very toxic (≤1 mg L^−1))” and the “Hazard Ranking” value (R. subcapitata [3]; [11]) is listed as “**** (Very toxic (≤1 mg L^−1))”. The EC50 (A. fischeri [4]; ref 49) was 39.80 µg/mL (≈ 185 µM), the “Hazard Ranking” value (A. fischeri [5]; [12]) was “** (harmful: (<10 mg L^−1 ≤ 100 mg L^−1))” and the EC50 (R. subcapitata [6]; 72 h) was 0.02 µg/mL (≈ 0.0927 µM).

For `O=C(O)CNCP(=O)(O)O` [Glyphosate], the EC50 (D. magna [1]; average of multiple tests performed, given as isopropylamine salt) is given as 4.30 °° mg L^−1, the EC50 (D. magna [1]; average of multiple tests performed, rounded up (formulation commercially available)) is given as 7.15 ° mg L^−1 and the EC50 (D. magna [1]; ref 40) is given as 4.20 mg/L (≈ 24.8 µM). The EC50 (D. magna [1]; ref 41) was 8.90 mg/L (≈ 52.6 µM), the LC50 (D. magna [1]; ref 42) was 21.34 µg/mL (≈ 126 µM) and the LC50 (D. magna [1]; ref 43) was 190.0 µg/mL (≈ 1120 µM). For the same molecule, the LC50 (D. magna [1]; ref 44) was 0.012 µg/mL (≈ 0.071 µM), the LC50 (D. magna [1]; ref 45) was 9.34 µg/mL (≈ 55.2 µM) and the LC50 (D. magna [1]; ref 46) was 11.68 µg/mL (≈ 69.1 µM). The “Hazard Ranking” value (D. magna [2]; GHS ranking of 48 h EC50 (commercial formulation) of ref 39) was “*** (toxic (<1 mg L^−1 ≤ 10 mg L^−1))”, the “Hazard Ranking” value (D. magna [2]; GHS ranking of 48 h EC50 (isopropylamine salt) of ref 39) was “*** (toxic (<1 mg L^−1 ≤ 10 mg L^−1))” and the “Hazard Ranking” value (D. magna [2]; GHS ranking of 48 h EC50 of ref 40) was “*** (toxic (<1 mg L^−1 ≤ 10 mg L^−1))”. For the same molecule, the “Hazard Ranking” value (D. magna [2]; GHS ranking of 48 h EC50 of ref 41) was “*** (toxic (<1 mg L^−1 ≤ 10 mg L^−1))”, the “Hazard Ranking” value (D. magna [2]; GHS ranking of 48 h LC50 of ref 42) was “** (harmful: (<10 mg L^−1 ≤ 100 mg L^−1))” and the “Hazard Ranking” value (D. magna [2]; GHS ranking of 48 h LC50 of ref 43) was “* (not harmful: (>100 mg L^−1))”. For the same molecule, the “Hazard Ranking” value (D. magna [2]; GHS ranking of 48 h LC50 of ref 44) was “**** (Very toxic (≤1 mg L^−1))”, the “Hazard Ranking” value (D. magna [2]; GHS ranking of 48 h LC50 of ref 45) was “*** (toxic (<1 mg L^−1 ≤ 10 mg L^−1))” and the “Hazard Ranking” value (D. magna [2]; GHS ranking of 48 h LC50 of ref 46) was “** (harmful: (<10 mg L^−1 ≤ 100 mg L^−1))”. The “Hazard Ranking” value (R. subcapitata [3]; [13]) was “*** (toxic (<1 mg L^−1 ≤ 10 mg L^−1))”, the EC50 (A. fischeri [4]; ref 48) was 2.93 µg/mL (≈ 17.3 µM) and the “Hazard Ranking” value (A. fischeri [5]; GHS ranking of 30 min EC50 of ref 48) was “*** (toxic (<1 mg L^−1 ≤ 10 mg L^−1))”. For the same molecule, the EC50 (R. subcapitata [6]; 96 h) was 5.55 µg/mL (≈ 32.8 µM).

For `CCc1cccc(C)c1N(C(=O)CCl)C(C)COC` (stereo not shown) [Metolachlor], the EC50 (D. magna [1]; ref 49) is listed as 23.50 mg/L (≈ 82.8 µM), the “Hazard Ranking” value (D. magna [2]; [10]) is listed as “** (harmful: (<10 mg L^−1 ≤ 100 mg L^−1))” and the “Hazard Ranking” value (R. subcapitata [3]; [11]) is listed as “**** (Very toxic (≤1 mg L^−1))”. For the same molecule, the “Hazard Ranking” value (R. subcapitata [3]; [13]) was “*** (toxic (<1 mg L^−1 ≤ 10 mg L^−1))”, the EC50 (A. fischeri [4]; ref 49) was 17.00 µg/mL (≈ 59.9 µM) and the EC50 (A. fischeri [4]; ref 50) was 265.00 µg/mL (≈ 934 µM). For the same molecule, the EC50 (A. fischeri [4]; ref 51) was 214.85 µg/mL (≈ 757 µM), the “Hazard Ranking” value (A. fischeri [5]; [12]) was “** (harmful: (<10 mg L^−1 ≤ 100 mg L^−1))” and the “Hazard Ranking” value (A. fischeri [5]; GHS ranking of 30 min EC50 of ref 50) was “* (not harmful: (>100 mg L^−1))”. For the same molecule, the “Hazard Ranking” value (A. fischeri [5]; GHS ranking of 30 min EC50 of ref 51) was “* (not harmful: (>100 mg L^−1))”, the EC50 (R. subcapitata [6]; 72 h) was 0.055 µg/mL (≈ 0.194 µM) and the EC50 (R. subcapitata [6]; 96 h) was 5.51 µg/mL (≈ 19.4 µM).

In the case of `CCC(=O)Nc1ccc(Cl)c(Cl)c1` [Propanil], the EC50 (D. magna [1]; ref 49) is listed as 2.00 mg/L (≈ 9.17 µM), the “Hazard Ranking” value (D. magna [2]; [10]) is listed as “*** (toxic (<1 mg L^−1 ≤ 10 mg L^−1))” and the “Hazard Ranking” value (R. subcapitata [3]; [11]) is listed as “**** (Very toxic (≤1 mg L^−1))”. The EC50 (R. subcapitata [6]; 72 h) was 0.05 µg/mL (≈ 0.229 µM).

With `[Cl][Cu][Cl]` [copper chloride, reference compound] the EC50 (C. elegans) was 42.37 µg/mL.

In the case of `[K+].[K+].[O]=[Cr](=[O])([O-])[O][Cr](=[O])(=[O])[O-]` [potassium dichromate, reference compound], the “EC50 (light inhibition)” value (A. fischeri [7]) is reported as 3.730 µg/mL, the “EC50 (immobilization)” value (D. magna [8]; 24 h exposure) is reported as 10.501 µg/mL and the “EC50 (immobilization)” value (D. magna [8]; 48 h exposure) is reported as 5.66 µg/mL. The “EC50 (growth inhibition)” value (R. subcapitata [9]) was 0.987 µg/mL.
